Where two headings read alike, the source gives them in different places. Blank lines part the entries; values can stand above or below the compound they belong to.
Columns and labels:
Experiment in all cases: Z'-LYTE fluorescence kinase assay, single point
Type in all cases: biochemical
[1] = biological target: T1, ROCK2 (Homo sapiens, UniProt O75116); settings: read-out: VS2
T1 construct: commercial kinase panel (Z'-LYTE, Thermo Fisher)
Description: Z'-LYTE fluorescence kinase assay, single point on ROCK2

[2] = biological target: T2, LRKK2 (Homo sapiens, UniProt Q5S007)
T2 construct: gene LRRK2; commercial kinase panel (Z'-LYTE, Thermo Fisher)
Description: Z'-LYTE fluorescence kinase assay, single point on LRKK2

[3] = biological target: T3, CSF1R (Homo sapiens, UniProt P07333)
T3 construct: commercial kinase panel (Z'-LYTE, Thermo Fisher)
Description: Z'-LYTE fluorescence kinase assay, single point on CSF1R

[4] = biological target: T4, SYK (Homo sapiens, UniProt P43405)
T4 construct: commercial kinase panel (Z'-LYTE, Thermo Fisher)
Description: Z'-LYTE fluorescence kinase assay, single point on SYK

[5] = biological target: T5, MAPK8 (Homo sapiens, UniProt P45983); settings: read-out: VS6
T5 construct: commercial kinase panel (Z'-LYTE, Thermo Fisher)
Description: Z'-LYTE fluorescence kinase assay, single point on MAPK8

[6] = biological target: T6, IRAK4 (Homo sapiens, UniProt Q9NWZ3); settings: read-out: VS7
T6 construct: commercial kinase panel (Z'-LYTE, Thermo Fisher)
T6 sequence (Q9NWZ3 1-460): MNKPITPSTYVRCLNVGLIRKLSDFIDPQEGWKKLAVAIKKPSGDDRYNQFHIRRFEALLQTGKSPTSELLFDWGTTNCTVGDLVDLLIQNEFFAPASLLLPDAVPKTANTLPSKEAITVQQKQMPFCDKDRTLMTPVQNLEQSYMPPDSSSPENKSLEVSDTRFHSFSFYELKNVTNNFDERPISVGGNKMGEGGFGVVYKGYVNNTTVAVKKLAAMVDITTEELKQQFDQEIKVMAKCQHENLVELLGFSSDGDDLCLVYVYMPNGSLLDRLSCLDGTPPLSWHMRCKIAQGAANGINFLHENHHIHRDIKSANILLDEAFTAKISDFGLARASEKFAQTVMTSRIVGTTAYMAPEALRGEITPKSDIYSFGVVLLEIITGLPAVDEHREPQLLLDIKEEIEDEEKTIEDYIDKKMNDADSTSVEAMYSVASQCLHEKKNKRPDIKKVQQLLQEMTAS
Description: Z'-LYTE fluorescence kinase assay, single point on IRAK4

[7] = biological target: T7, LCK (Homo sapiens, UniProt P06239); settings: read-out: VS7
T7 construct: commercial kinase panel (Z'-LYTE, Thermo Fisher)
Description: Z'-LYTE fluorescence kinase assay, single point on LCK

[8] = biological target: T8, NTRK1 (Homo sapiens, UniProt P04629); settings: read-out: VS7
T8 construct: commercial kinase panel (Z'-LYTE, Thermo Fisher)
Description: Z'-LYTE fluorescence kinase assay, single point on NTRK1

[9] = biological target: T9, PTK2 (Homo sapiens, UniProt Q05397); settings: read-out: VS7
T9 construct: commercial kinase panel (Z'-LYTE, Thermo Fisher)
Description: Z'-LYTE fluorescence kinase assay, single point on PTK2

T3 sequence (P07333 20-972): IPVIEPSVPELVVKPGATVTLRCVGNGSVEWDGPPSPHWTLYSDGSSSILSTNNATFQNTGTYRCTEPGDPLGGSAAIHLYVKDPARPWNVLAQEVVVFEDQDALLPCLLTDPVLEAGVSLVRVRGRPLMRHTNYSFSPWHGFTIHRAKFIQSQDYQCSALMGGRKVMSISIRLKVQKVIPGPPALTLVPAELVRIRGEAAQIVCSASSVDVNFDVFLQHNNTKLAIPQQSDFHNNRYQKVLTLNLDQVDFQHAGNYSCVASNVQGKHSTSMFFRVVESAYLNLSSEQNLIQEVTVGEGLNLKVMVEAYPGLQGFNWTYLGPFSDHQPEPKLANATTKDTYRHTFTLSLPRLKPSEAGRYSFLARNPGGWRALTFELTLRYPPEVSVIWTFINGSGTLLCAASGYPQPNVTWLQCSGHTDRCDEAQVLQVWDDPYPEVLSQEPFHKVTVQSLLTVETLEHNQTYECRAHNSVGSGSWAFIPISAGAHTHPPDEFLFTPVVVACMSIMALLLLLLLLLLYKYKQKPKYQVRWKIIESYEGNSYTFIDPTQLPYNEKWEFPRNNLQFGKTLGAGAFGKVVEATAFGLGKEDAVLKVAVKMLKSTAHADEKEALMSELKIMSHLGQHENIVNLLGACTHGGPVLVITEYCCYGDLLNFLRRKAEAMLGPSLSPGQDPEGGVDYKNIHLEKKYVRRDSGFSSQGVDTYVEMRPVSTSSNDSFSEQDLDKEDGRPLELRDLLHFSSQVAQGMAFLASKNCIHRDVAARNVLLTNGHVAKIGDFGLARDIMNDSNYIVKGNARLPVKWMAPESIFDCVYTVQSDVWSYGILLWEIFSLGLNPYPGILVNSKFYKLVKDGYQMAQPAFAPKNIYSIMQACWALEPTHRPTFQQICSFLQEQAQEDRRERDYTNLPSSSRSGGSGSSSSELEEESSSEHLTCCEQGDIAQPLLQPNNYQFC
T2 sequence (Q5S007 whole entry): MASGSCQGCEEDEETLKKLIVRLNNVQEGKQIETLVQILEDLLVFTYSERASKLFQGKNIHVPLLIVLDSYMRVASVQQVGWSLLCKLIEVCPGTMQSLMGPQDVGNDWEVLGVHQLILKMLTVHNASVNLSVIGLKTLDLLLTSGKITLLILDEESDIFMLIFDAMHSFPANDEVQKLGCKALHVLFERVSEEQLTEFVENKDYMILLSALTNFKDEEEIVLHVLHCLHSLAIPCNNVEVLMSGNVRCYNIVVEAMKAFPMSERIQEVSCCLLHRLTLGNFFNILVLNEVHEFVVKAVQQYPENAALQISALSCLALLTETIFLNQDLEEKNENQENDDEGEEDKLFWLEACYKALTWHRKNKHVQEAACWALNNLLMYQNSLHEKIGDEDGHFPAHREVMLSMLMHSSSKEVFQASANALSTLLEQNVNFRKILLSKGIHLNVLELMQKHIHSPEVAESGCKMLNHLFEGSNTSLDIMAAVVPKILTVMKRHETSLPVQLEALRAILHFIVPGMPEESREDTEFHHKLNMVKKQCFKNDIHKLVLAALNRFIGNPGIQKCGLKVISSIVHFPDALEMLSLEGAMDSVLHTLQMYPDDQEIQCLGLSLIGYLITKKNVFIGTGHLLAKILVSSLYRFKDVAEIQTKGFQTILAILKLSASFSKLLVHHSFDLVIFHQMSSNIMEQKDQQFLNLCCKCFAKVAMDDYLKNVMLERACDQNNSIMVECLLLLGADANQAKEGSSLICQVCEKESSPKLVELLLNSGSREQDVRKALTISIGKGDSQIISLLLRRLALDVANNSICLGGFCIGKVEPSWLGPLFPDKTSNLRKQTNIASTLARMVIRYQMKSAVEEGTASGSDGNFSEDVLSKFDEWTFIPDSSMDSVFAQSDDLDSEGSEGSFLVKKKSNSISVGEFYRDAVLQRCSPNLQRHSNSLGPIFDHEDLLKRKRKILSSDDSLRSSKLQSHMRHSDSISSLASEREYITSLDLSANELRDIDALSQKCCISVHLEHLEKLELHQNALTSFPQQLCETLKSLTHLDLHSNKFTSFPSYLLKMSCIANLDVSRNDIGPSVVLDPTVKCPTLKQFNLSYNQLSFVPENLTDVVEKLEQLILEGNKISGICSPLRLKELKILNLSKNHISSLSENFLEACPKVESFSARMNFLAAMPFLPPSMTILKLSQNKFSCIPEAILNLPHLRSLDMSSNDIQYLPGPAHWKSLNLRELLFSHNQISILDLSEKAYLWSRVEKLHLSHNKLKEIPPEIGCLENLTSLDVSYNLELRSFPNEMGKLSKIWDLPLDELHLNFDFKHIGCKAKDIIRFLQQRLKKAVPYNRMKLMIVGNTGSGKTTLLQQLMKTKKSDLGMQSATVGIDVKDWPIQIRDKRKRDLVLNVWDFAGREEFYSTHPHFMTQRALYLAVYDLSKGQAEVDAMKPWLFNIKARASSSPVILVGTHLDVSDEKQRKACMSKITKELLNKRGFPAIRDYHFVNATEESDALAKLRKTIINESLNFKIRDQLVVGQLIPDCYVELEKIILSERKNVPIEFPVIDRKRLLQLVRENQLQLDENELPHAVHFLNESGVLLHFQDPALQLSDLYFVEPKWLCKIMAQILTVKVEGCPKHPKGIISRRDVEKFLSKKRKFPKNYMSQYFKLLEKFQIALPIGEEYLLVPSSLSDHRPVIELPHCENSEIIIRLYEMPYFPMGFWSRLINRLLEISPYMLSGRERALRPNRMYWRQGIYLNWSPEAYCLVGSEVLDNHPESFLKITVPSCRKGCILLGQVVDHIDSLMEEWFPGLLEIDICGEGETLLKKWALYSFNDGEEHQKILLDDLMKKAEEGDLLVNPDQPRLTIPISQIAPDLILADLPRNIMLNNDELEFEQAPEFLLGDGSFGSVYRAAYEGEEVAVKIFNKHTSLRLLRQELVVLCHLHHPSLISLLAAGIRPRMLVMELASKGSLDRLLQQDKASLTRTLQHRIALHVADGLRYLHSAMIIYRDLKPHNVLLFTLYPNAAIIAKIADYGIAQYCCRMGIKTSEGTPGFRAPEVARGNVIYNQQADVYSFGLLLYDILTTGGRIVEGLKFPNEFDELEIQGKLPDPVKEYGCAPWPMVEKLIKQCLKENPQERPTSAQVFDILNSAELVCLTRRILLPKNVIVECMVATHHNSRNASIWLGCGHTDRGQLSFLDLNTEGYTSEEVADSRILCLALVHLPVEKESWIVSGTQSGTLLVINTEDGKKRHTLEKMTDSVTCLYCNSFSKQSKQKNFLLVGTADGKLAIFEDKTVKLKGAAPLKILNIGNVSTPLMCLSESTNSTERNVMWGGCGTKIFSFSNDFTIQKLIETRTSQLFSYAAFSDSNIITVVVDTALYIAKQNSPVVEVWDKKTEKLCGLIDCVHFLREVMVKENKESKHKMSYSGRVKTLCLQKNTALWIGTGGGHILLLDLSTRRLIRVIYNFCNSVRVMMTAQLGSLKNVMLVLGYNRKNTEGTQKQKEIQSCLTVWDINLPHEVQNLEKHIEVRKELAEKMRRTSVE
T9 sequence (Q05397 2-1052): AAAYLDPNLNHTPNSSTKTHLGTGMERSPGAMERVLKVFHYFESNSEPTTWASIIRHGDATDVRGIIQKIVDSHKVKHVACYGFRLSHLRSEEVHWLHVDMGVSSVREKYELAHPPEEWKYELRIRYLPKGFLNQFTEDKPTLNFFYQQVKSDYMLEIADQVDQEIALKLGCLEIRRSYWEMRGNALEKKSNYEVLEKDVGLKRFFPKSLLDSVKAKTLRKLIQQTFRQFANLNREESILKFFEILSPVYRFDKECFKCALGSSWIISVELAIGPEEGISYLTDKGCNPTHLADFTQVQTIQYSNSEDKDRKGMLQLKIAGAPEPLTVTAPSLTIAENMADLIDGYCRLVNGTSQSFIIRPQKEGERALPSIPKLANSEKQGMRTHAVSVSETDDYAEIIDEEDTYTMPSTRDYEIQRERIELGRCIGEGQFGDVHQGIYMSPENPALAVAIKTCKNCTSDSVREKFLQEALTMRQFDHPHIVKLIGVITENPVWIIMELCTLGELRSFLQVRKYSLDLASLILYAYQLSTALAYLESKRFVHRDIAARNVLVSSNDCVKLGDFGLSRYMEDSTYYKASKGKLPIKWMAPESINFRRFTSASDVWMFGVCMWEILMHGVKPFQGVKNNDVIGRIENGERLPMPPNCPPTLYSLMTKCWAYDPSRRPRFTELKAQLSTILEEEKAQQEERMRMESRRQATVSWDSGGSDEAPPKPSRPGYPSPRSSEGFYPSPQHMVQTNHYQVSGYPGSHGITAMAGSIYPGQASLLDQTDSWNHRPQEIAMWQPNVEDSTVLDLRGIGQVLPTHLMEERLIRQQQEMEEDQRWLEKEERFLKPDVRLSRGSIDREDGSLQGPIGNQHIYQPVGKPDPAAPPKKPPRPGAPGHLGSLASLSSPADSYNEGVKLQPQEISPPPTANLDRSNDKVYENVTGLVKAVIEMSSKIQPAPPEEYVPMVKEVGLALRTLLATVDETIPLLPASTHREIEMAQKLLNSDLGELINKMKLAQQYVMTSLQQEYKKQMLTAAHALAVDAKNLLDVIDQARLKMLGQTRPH
T5 sequence (P45983 whole entry): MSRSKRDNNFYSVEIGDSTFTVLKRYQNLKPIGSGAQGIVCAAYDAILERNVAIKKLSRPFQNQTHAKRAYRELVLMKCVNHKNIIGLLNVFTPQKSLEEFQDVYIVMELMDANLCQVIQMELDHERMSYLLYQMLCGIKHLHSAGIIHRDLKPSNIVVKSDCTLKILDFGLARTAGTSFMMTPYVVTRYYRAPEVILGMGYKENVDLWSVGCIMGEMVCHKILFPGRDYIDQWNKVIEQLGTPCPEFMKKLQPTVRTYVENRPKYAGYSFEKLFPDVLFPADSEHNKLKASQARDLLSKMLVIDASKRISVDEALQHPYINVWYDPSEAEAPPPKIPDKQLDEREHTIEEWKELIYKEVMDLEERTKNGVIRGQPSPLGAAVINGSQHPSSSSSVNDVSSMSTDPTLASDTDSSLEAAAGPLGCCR

SMILES: Cc1cc(C(=O)Nc2scc(-c3ccc(C)c(C)c3)c2C(N)=O)no1 [VS5]
- inhibition at 10 µM ([3]; read-out: VS5): 54%

SMILES: c1ccc(Nc2nccc(-c3ccsc3)n2)cc1 [VS6]
- inhibition at 10 µM ([4]; read-out: VS6): 57%
- inhibition at 10 µM ([3]; read-out: VS6): 89%
- inhibition at 10 µM ([2]; read-out: VS6): 60%
- inhibition at 10 µM [5]: 63%

SMILES: NC(=O)c1ccc(Nc2nc(NCc3ccco3)c3ccccc3n2)cc1 [VS7]
- inhibition at 10 µM ([4]; read-out: VS7): 90%
- inhibition at 10 µM [6]: 80%
- inhibition at 10 µM [7]: 53%
- inhibition at 10 µM ([3]; read-out: VS6): 89%
- inhibition at 10 µM ([2]; read-out: VS7): 100%
- inhibition at 10 µM [8]: 90%
- inhibition at 10 µM [9]: 66%

The remaining lines, values ahead:

- inhibition at 10 µM [1]: 74%
- inhibition at 10 µM ([2]; read-out: VS2): 50%
SMILES: O=C(Nc1ccncc1)c1cccc(C(F)(F)F)c1 [VS2]

- inhibition at 10 µM ([2]; read-out: VS3): 54%
SMILES: COc1cc(/C=C(/C#N)C(=O)c2ccccc2)ccc1O [VS3]

From publication PMC11900317, “KinasePred: A Computational Tool for Small-Molecule Kinase Target Prediction” (International Journal of Molecular Sciences, 2025)
